Measured values reported in patent US5932555A (priority 1997, dated 1999).
In brackets after ≈: the same amount, converted by molar mass.

Legend:
[1] = system: adriamycin-resistant P388; test: Cytotoxicity test on adriamycin-resistant P388 (P388/ADR) (MTT, 72 h); format: cell-based
Description: Cultured tumor cell lines P388 and P388/ADR were suspended in RPMI1640 medium containing 10% heat inactivated fetal calf serum (FCS) and 20 μM 2-mercaptoethanol whereby a cell suspension (5×10^4 cells/ml) was prepared.
A sample examined was dissolved in methanol, then diluted with RPMI 1640 medium and subjected to serial 2-fold dilution starting at the concentration of 0.1 mg/ml. 180 μl of the cell suspension and 20 μl of the sample solution were added into a 96-well micro-titer plate and incubated at 37° C. in wet 5% CO2 gas/95% air. 72 hours thereafter, cell growth was measured by a calorimetric assay method using 3-(4,5-dimethyl-2-thiazolyl)-2,5-diphenyl-2H-tetrazolium bromide (MTT) as follows: 20 μl of 2 mg/ml MTT solution was added to each well and the cells were incubated for 4 hours at 37° C. Thereafter, 50 μl of 50% dimethylformamide solution containing 20% sodium dodecyl sulfate was added to each well and allowed to stand, so that the formed violet formazan crystal was dissolved, and its absorbance at 570 nm was measured in a microplate absorbance photometer (Immunoreader) and used as an indicator of the growth. The result was expressed in terms of the concentration of a sample at which growth was inhibited by 50% (IC50), which was determined from the relationship between sample concentrations and degrees of inhibition calculated using the following equation (1):
Degree of inhibition=[1-(absorbance in presence of sample)/(absorbance in
absence of sample)]×100 (1)

P388 = test: Mouse in vivo antitumor test, P388 transplanted
Description: 2×10^5 cells of P388 or P388/ADR were inoculated intraperitoneally into each of CDF1 mice (male, each weighing 20 g, 10 animals/group), and from the next day, the test solution was administered at 10, 5, and 1 mg/kg body weight/day respectively by intraperitoneal injection of 200 μl sample at each concentration once a day for 10 successive days. The numbers with time of mice which survived after administration was counted and the average survival days and T/C (survival days of treated mice/survival days of control mice) were calculated. The average body weights after 10 days were also measured.

[2] = system: blastgenesis of lymphocytes; test: Mouse allogenic mixed lymphocyte reaction (MLR), inhibition of blastgenesis ([3H]-thymidine incorporation); format: cell-based, mouse (C57BL/6 responder, BALB/C stimulator); settings: 96 h
Description: The mouse allogenic mixed lymphocyte reaction for assay was carried out according to the method of Hatanaka et al. (Hatanaka et al., J. Antibiotics, 41, 1592-1601 (1988)). That is, spleen cells from C57BL/6 mouse (H-2^b) as responder cells were mixed with spleen cells from BALB/C mouse (H-2^d) treated with mitomycin C as stimulator cells, and then cultured.
Preparation of the responder cells was carried out in the following manner:
The spleen was removed from a 5- to 6-week-old C57BL/6 mouse, then homogenized in 20 ml ice-cold RPMI 1640 medium supplemented with 10% heat inactivated fetal calf serum (FCS), and filtered through a gauze to give a single cell suspension. The cells were recovered by centrifugation, suspended in 4 ml PRMI 1640 medium, followed by adding 6 ml solution (pH 7.2) containing 0.15 M ammonium chloride, 1 mM sodium hydrogen carbonate and 0.1 mM tetrasodium ethylenediaminetetraacetate, and the mixture was incubated at 0° C. for 1 minute to remove the contaminating erythrocytes. […]
90 μl of the responder cell suspension, 90 μl of the stimulator cell suspension and 20 μl of sample were added to a 96-well microplate and incubated at 37° C. in wet 5% CO2 /95% air for 96 hours. […] The radioactivity of a filter disk corresponding to each well was determined using liquid scintillation counter (beta-counter).

[3] = P388, 1 mg/kg/day i.p. × 10 days
[4] = P388, 5 mg/kg/day i.p. × 10 days
[5] = P388, 10 mg/kg/day i.p. × 10 days

**Q.** COC(CC1C(C)=CCC2C1(C)CCC1C(C)(C)C(O)C(OC3OC(C)C(OC(=O)c4cccc(O)c4)C(OC4OC(CO)C(O)C(O)C4NC(C)=O)C3O)CC12C)C(N)C(=O)O (stereo not shown) [0406TP-1] was tested. Which IC50 ([1]; Mus musculus, adriamycin-resistant P388, 72 h, MTT, read-out: IC50 (growth inhibition)) did it give?
**A.** 0.22 µg/mL (≈ 0.246 µM)

**Q.** And the “inhibition on growth of adriamycin-resistant cells” value ([1]; in words)?
**A.** strong inhibition

**Q.** And the T/C (P388; [3])?
**A.** 123%

**Q.** What about the “average body weight after 10 days” value (P388; [3]) of the same compound?
**A.** 25.9 g

**Q.** And the average survival days (P388; [3])?
**A.** 12.7 days

**Q.** And the T/C (P388; [4])?
**A.** 123%

**Q.** What about the “average body weight after 10 days” value (P388; [4]) of the same compound?
**A.** 26.3 g

**Q.** What about the average survival days (P388; [4]) of the same compound?
**A.** 12.7 days

**Q.** What about the T/C (P388; [5]) of the same compound?
**A.** 128%

**Q.** And the “average body weight after 10 days” value (P388; [5])?
**A.** 27.3 g

**Q.** And the average survival days (P388; [5])?
**A.** 13.2 days

**Q.** What about the “therapeutic effect (improvement in survival rate)” value (P388; P388-transplanted mice, adriamycin 1 mg/kg/day vs 0406TP-1) of the same compound?
**A.** same degree of therapeutic effect

**Q.** What about the IC50 [2] of the same compound?
**A.** 0.11 µg/mL (≈ 0.123 µM)
